Measurements: patent US20240270762A1, “PENICILLIN-BINDING PROTEIN INHIBITORS” (priority 2021, published 2024)
In brackets after ≈: the same amount, converted by molar mass.

What was measured:
A. baumannii CDC-0033 = test: microbe, parasite or virus in culture; type: cell-based; conditions: Acinetobacter baumannii, CDC0033, read-out: MIC, A. baumannii CDC-0033
P. aeruginosa CDC-0110 = test: microbe, parasite or virus in culture; type: cell-based; conditions: Pseudomonas aeruginosa, CDC0110, read-out: Minimum inhibitory concentration, P. aeruginosa CDC-0110
A. baumannii 1258916 = test: microbe, parasite or virus in culture; type: cell-based, Acinetobacter baumannii; conditions: Acinetobacter baumannii, 1258916, read-out: MIC, A. baumannii 1258916
A. baumannii PBP2 = A. baumannii PBP2 (Acinetobacter baumannii, UniProt D0C8Z9); test: Bocillin-FL competition binding via gel filtration, A. baumannii PBP2
Chain of A. baumannii PBP2 (D0C8Z9 whole entry): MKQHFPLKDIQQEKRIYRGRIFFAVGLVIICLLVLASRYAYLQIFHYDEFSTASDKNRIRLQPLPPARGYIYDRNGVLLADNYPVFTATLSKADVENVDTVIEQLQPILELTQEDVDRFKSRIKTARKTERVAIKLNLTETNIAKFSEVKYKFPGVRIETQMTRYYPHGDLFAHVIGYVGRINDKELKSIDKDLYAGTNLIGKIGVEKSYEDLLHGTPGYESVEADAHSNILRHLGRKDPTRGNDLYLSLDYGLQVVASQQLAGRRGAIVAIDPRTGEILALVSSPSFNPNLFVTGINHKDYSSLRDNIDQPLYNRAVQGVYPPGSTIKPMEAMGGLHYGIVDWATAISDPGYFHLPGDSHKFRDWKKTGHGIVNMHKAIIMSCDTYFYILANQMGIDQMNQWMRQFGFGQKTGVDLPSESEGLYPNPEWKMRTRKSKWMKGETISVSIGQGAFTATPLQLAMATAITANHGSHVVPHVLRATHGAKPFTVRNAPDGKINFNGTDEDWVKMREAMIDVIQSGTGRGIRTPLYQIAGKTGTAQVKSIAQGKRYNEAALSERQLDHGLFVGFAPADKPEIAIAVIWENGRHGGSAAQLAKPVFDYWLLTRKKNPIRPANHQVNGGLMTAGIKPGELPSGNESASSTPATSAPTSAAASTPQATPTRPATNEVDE
Summary of the method: (§1)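 Competitive equilibrium binding with Bocillin-FL reporter: PBP pre-incubated with inhibitor dilutions, Bocillin-FL added, 15 min incubation. Labelled enzyme isolated by size-exclusion spin plates, fluorescence measured; EC50 obtained by fitting bound fraction against inhibitor concentration with a Hill-coefficient model.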

[1] = tested on: B. humptydooensis ATCC BAA-2767; test: microbe, parasite or virus in culture; type: cell-based; conditions: Burkholderia humptydooensis, ATCCBAA2767, read-out: Minimum inhibitory concentration (MIC), B. humptydooensis ATCC BAA-2767
A. baumannii ATCC 17978 = test: microbe, parasite or virus in culture; type: cell-based; conditions: Acinetobacter baumannii, ATCC17978, read-out: MIC, A. baumannii ATCC 17978
A. baumannii CDC-0045 = test: microbe, parasite or virus in culture; type: cell-based; conditions: Acinetobacter baumannii, CDC0045, read-out: MIC, A. baumannii CDC-0045
A. baumannii PBP1a = molecular target: T1, A. baumannii PBP1a (Acinetobacter baumannii, UniProt A0ABX6CK30); test: Bocillin-FL competition binding via gel filtration, A. baumannii PBP1a; conditions: competition binding assay using Bocillin-FL via gel filtration; read-out: A. baumannii PBP1a Potency
T1 sequence (A0ABX6CK30 1-851): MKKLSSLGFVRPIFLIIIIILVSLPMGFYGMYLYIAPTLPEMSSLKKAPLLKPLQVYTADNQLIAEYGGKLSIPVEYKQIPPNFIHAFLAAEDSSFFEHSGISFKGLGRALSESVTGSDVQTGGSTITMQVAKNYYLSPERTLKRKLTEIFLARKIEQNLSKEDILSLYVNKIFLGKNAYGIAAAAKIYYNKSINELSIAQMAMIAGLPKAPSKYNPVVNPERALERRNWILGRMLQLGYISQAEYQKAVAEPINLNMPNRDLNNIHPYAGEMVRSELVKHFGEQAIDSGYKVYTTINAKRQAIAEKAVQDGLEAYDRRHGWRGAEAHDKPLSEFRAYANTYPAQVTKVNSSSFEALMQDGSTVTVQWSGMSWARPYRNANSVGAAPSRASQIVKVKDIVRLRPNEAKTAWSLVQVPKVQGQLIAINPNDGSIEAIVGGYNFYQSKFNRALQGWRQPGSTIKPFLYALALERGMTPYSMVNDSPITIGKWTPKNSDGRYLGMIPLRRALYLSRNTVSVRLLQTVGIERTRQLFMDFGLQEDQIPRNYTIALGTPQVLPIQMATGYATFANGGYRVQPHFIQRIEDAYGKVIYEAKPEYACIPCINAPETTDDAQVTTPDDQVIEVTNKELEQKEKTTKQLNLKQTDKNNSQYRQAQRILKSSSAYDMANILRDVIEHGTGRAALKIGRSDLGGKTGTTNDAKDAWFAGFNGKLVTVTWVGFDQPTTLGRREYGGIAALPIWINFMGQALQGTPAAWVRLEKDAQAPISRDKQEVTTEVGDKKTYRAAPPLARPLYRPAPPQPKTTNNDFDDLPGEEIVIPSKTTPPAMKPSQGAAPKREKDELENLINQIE
Summary of the method: as §1

P. aeruginosa ATCC 35151 = test: microbe, parasite or virus in culture; type: cell-based; conditions: Pseudomonas aeruginosa, ATCC35151, read-out: Minimum inhibitory concentration, P. aeruginosa ATCC 35151
A. baumannii ATCC 19606 = test: microbe, parasite or virus in culture; type: cell-based; conditions: Acinetobacter baumannii, ATCC19606, read-out: MIC, A. baumannii ATCC 19606
P. aeruginosa ATCC 27853 = test: microbe, parasite or virus in culture; type: cell-based; conditions: Pseudomonas aeruginosa, ATCC27853, read-out: Minimum inhibitory concentration, P. aeruginosa ATCC 27853
A. baumannii CDC-0036 = test: microbe, parasite or virus in culture; type: cell-based; conditions: Acinetobacter baumannii, CDC0036, read-out: MIC, A. baumannii CDC-0036

Compound | MIC (A. baumannii CDC-0033) [µg/mL] | MIC (P. aeruginosa CDC-0110) [µg/mL] | MIC (A. baumannii 1258916) [µg/mL] | EC50 (A. baumannii PBP2) [µM] | MIC [1] [µg/mL] | MIC (A. baumannii ATCC 17978) [µg/mL] | MIC (A. baumannii CDC-0045) [µg/mL] | EC50 (A. baumannii PBP1a) [µM] | MIC (P. aeruginosa ATCC 35151) [µg/mL] | MIC (A. baumannii ATCC 19606) [µg/mL] | MIC (P. aeruginosa ATCC 27853) [µg/mL] | MIC (A. baumannii CDC-0036) [µg/mL]
O=C(O)c1c(F)ccc2c1OB(O)[C@@H](NC(=O)[C@H](NC(=O)N1CCN(C3CCN(C(=O)Nc4ccc(F)c(O)c4)CC3)C1=O)c1cc(F)c(O)c(O)c1Cl)C2 (single isomer, unassigned) [Example 449] | < 1 | < 1 | < 1 | < 10 | 2 to 4 (≈ 2.53 to 5.06 µM) | < 1 | < 1 | < 10 | < 1 | < 1 | < 1 | < 1
O=C(O)c1c(F)ccc2c1OB(O)[C@@H](NC(=O)[C@H](NC(=O)N1CCN(C3CCN(C(=O)Nc4cc(O)ccc4F)CC3)C1=O)c1cc(F)c(O)c(O)c1Cl)C2 (single isomer, unassigned) [Example 451] | < 1 | < 1 | < 1 | < 10 | < 1 | < 1 | < 1 | < 10 | < 1 | < 1 | < 1 | < 1
O=C(O)c1c(F)ccc2c1OB(O)[C@@H](NC(=O)[C@H](NC(=O)N1CCN(C3CCN(C(=O)c4cc(O)ccc4Cl)CC3)C1=O)c1cc(F)c(O)c(O)c1Cl)C2 (single isomer, unassigned) [Example 434] | < 1 | < 1 | < 1 | < 10 | < 1 | < 1 | < 1 | < 10 | < 1 | < 1 | < 1 | < 1
O=C(O)c1c(F)ccc2c1OB(O)[C@@H](NC(=O)[C@H](NC(=O)N1CCN(C3CCN(C(=O)c4cc(F)c(F)c(O)c4F)CC3)C1=O)c1cc(F)c(O)c(O)c1Cl)C2 (single isomer, unassigned) [Example 441] | < 1 | < 1 | < 1 | < 10 | < 1 | < 1 | < 1 | < 10 | < 1 | < 1 | 2 to 4 (≈ 2.46 to 4.93 µM) | < 1
O=C(O)c1c(F)ccc2c1OB(O)[C@@H](NC(=O)[C@H](NC(=O)N1CCN(C3CCN(C(=O)c4cc(O)cc(F)c4)CC3)C1=O)c1cc(F)c(O)c(O)c1Cl)C2 (single isomer, unassigned) [Example 436] | < 1 | < 1 | < 1 | < 10 | < 1 | < 1 | < 1 | < 10 | < 1 | < 1 | < 1 | < 1
O=C(NCCS(=O)(=O)N1CCN(C(=O)N[C@@H](C(=O)N[C@H]2Cc3ccc(F)c(C(=O)O)c3OB2O)c2ccc(P(=O)(O)O)cc2)C1=O)c1ccc(O)c(O)c1Cl (single isomer, unassigned) [Example 168] | 32 to 64 (≈ 38.7 to 77.3 µM) | 32 to 64 (≈ 38.7 to 77.3 µM) | 2 to 4 (≈ 2.42 to 4.83 µM) | < 10 | < 1 | < 1 | 2 to 4 (≈ 2.42 to 4.83 µM) | 50 to 250 | 2 to 4 (≈ 2.42 to 4.83 µM) | < 1 | 8 to 16 (≈ 9.66 to 19.3 µM) | 2 to 4 (≈ 2.42 to 4.83 µM)
